In PubChem BioAssay AID220 (DTP/NCI, 2004) one finds T/C data, which are given here for twelve compounds.

The structures appear in SMILES notation. “And” between values parts separate entries of the source, which are not always exact repeats. Identical values can stand only once. Inconclusive results are not listed.

For this assay, the system named is CD8F1 mice, subcutaneous mammary adenocarcinoma, T/C%. Put plainly: NCI In Vivo Anticancer Drug Screen. Data for tumor model Mammary Adenocarcinoma CD8F1 (subcutaneous) in CD8F1. To be noted: higher = larger tumour. How it is done:
The antitumor activity of compounds was measured in mice bearing transplantable tumors. Survival or tumor size were measured and the results are expressed as the measurement made in the treated group (T) divided by the measurement made in the vehicle treated control group (C). The tumor model used in this assay is Mammary Adenocarcinoma CD8F1 (subcutaneous) in CD8F1

The mark [1] stands for this setting: endpoint: median tumor weight change, dose: 62.5 mg/kg/injection, schedule: Q01DX001 (ip), vehicle: saline with Tween-80.
Where [2] appears, read: endpoint: median tumor weight change, dose: 125.0 mg/kg/injection, schedule: Q01DX001 (ip), vehicle: saline with Tween-80.
Setting [3] is: endpoint: median tumor weight change, dose: 250.0 mg/kg/injection, schedule: Q01DX001 (ip), vehicle: saline with Tween-80.
Setting [4] is: endpoint: median tumor weight change, dose: 500.0 mg/kg/injection, schedule: Q01DX001 (ip), vehicle: saline with Tween-80.
[5] abbreviates: endpoint: median tumor weight change, dose: 1000.0 mg/kg/injection, schedule: Q01DX001 (ip), vehicle: saline with Tween-80.

For the compound `CC1CN1C(=O)NCCCCCCNC(=O)N1CC1C` (stereo not drawn), the T/C was 75 % of control and 86 % of control (endpoint: median tumor weight (est.), dose: 5.0 mg/kg/injection, schedule: Q07DX005 (ip), vehicle: Klucel (hydroxypropylcellulose) (HPC)); 40 % of control and 55 % of control (endpoint: median tumor weight (est.), dose: 10.0 mg/kg/injection, schedule: Q07DX005 (ip), vehicle: Klucel (hydroxypropylcellulose) (HPC)); 6 % of control and 19 % of control (endpoint: median tumor weight (est.), dose: 20.0 mg/kg/injection, schedule: Q07DX005 (ip), vehicle: Klucel (hydroxypropylcellulose) (HPC)).
In the case of `NC(=O)/C=C/C(=O)c1c(Cl)cccc1Cl`, the T/C by setting is: (endpoint: median tumor weight change, dose: 1.5 mg/kg/injection, schedule: Q01DX001 (ip), vehicle: saline with Tween-80) 110 % of control; (endpoint: median tumor weight change, dose: 3.0 mg/kg/injection, schedule: Q01DX001 (ip), vehicle: saline with Tween-80) 85 % of control; (endpoint: median tumor weight change, dose: 6.0 mg/kg/injection, schedule: Q01DX001 (ip), vehicle: saline with Tween-80) 100 % of control; (endpoint: median tumor weight change, dose: 12.0 mg/kg/injection, schedule: Q01DX001 (ip), vehicle: saline with Tween-80) 90 % of control; (endpoint: median tumor weight change, dose: 12.5 mg/kg/injection, schedule: Q01DX001 (ip), vehicle: saline with Tween-80) 71 % of control; (endpoint: median tumor weight change, dose: 50.0 mg/kg/injection, schedule: Q01DX001 (ip), vehicle: saline with Tween-80) 104 % of control. In addition, the T/C (endpoint: median tumor weight change, dose: 100.0 mg/kg/injection, schedule: Q01DX001 (ip), vehicle: saline with Tween-80) is 55 % of control.
On to `N#CC(=C1C=CC(=NO)C=C1)c1ccc(Cl)cc1`, for which the T/C is 36 % of control and 52 % of control (endpoint: mean tumor weight, dose: 100.0 mg/kg/injection, schedule: Q07DX006 (ip), vehicle: saline with Tween-80); 19 % of control and 26 % of control (endpoint: mean tumor weight, dose: 200.0 mg/kg/injection, schedule: Q07DX006 (ip), vehicle: saline with Tween-80); 7 % of control and 10 % of control (endpoint: mean tumor weight, dose: 400.0 mg/kg/injection, schedule: Q07DX006 (ip), vehicle: saline with Tween-80); 98 % of control (endpoint: median tumor weight (est.), dose: 25.0 mg/kg/injection, schedule: Q07DX005 (ip), vehicle: saline with Tween-80); 63 % of control (endpoint: median tumor weight (est.), dose: 50.0 mg/kg/injection, schedule: Q07DX005 (ip), vehicle: saline with Tween-80); 58 % of control (endpoint: median tumor weight (est.), dose: 100.0 mg/kg/injection, schedule: Q07DX005 (ip), vehicle: saline with Tween-80). Moreover, the T/C reads like this: (endpoint: median tumor weight (est.), dose: 200.0 mg/kg/injection, schedule: Q07DX005 (ip), vehicle: saline with Tween-80) 57 % of control; (endpoint: median tumor weight (est.), dose: 400.0 mg/kg/injection, schedule: Q07DX005 (ip), vehicle: saline with Tween-80) 36 % of control; under setting [1], 92 % of control; under setting [2], 88 % of control; under setting [3], 70 % of control; under setting [4], 28 % of control. Moreover, the T/C under setting [5] was 26 % of control.
For `[Cl][Pt+2][Cl].[NH-]C1CCC1.[NH2-]`, the T/C reads like this: (endpoint: median tumor weight change, dose: 6.25 mg/kg/injection, schedule: Q01DX001 (ip), vehicle: suspension in saline) 96 % of control; (endpoint: median tumor weight change, dose: 12.5 mg/kg/injection, schedule: Q01DX001 (ip), vehicle: suspension in saline) 99 % of control.
With `Nc1nc2c(C(=O)N3CCCC3)nnn2c2ccccc12`, the T/C by setting is: under setting [1], 77 % of control; under setting [2], 87 % of control.
Consider `Nc1ccc2ccc(NS(=O)(=O)N3CCCCC3)cc2c1`, for which the T/C under setting [2] is 66 % of control, the T/C under setting [3] is 73 % of control, the T/C under setting [4] was 87 % of control and the T/C under setting [5] was 31 % of control.
With `COc1ccc([C@@]23Oc4cc(OC)cc(OC)c4[C@]2(O)[C@H](O)[C@H](C(=O)N(C)C)[C@H]3c2ccccc2)cc1`, the T/C (endpoint: median tumor weight change, dose: 2.5 mg/kg/injection, schedule: Q01DX001 (ip), vehicle: Klucel (hydroxypropylcellulose) (HPC)) is 212 % of control; the T/C (endpoint: median tumor weight change, dose: 5.0 mg/kg/injection, schedule: Q01DX001 (ip), vehicle: Klucel (hydroxypropylcellulose) (HPC)) is 105 % of control; the T/C (endpoint: median tumor weight change, dose: 10.0 mg/kg/injection, schedule: Q01DX001 (ip), vehicle: Klucel (hydroxypropylcellulose) (HPC)) was 72 % of control.
Regarding `CNNCc1ccc(C(=O)NC(C)C)cc1`, the T/C (endpoint: median tumor weight (est.), dose: 16.0 mg/kg/injection, schedule: Q07DX005 (ip), vehicle: saline) is 207 % of control and 101 % of control.
Turning to `CC1/C=C/C=C/CC/C=C/C=C/C=C/C=C/C(OC2OC(C)C(O)C(N)C2O)CC2OC(CC(O)C(O)CCC(O)CC(O)CC(O)CC(=O)OC(C)C(C)C1O)CC(O)C2C(=O)O` (stereo not drawn), the T/C is 124 % of control (endpoint: median tumor weight change, dose: 31.25 mg/kg/injection, schedule: Q01DX001 (ip), vehicle: saline with Tween-80) and 84 % of control under setting [1].
Turning to `C=C(OP(=O)(OC)OC)Sc1ccccc1C`, the T/C (endpoint: median tumor weight change, dose: 0.38 mg/kg/injection, schedule: Q01DX001 (ip), vehicle: Klucel (hydroxypropylcellulose) (HPC)) is 80 % of control; the T/C (endpoint: median tumor weight change, dose: 0.75 mg/kg/injection, schedule: Q01DX001 (ip), vehicle: Klucel (hydroxypropylcellulose) (HPC)) was 96 % of control; the T/C (endpoint: median tumor weight change, dose: 1.5 mg/kg/injection, schedule: Q01DX001 (ip), vehicle: Klucel (hydroxypropylcellulose) (HPC)) was 88 % of control.
As to `C=CS(=O)(=O)c1ccccc1`, the T/C runs as follows: (endpoint: mean tumor weight, dose: 25.0 mg/kg/injection, schedule: Q07DX005 (ip), vehicle: saline with Tween-80) 110 % of control; (endpoint: mean tumor weight, dose: 50.0 mg/kg/injection, schedule: Q07DX005 (ip), vehicle: saline with Tween-80) 117 % of control; (endpoint: mean tumor weight, dose: 100.0 mg/kg/injection, schedule: Q07DX005 (ip), vehicle: saline with Tween-80) 114 % of control; (endpoint: mean tumor weight, dose: 200.0 mg/kg/injection, schedule: Q07DX005 (ip), vehicle: saline with Tween-80) 154 % of control.
For `O=c1[nH]c(=O)n(C2CC(O)C(CO)O2)cc1C(F)(F)F` (stereo not drawn), the T/C reads like this: (endpoint: mean tumor weight, dose: 125.0 mg/kg/injection, schedule: Q07DX005 (ip), vehicle: saline) 65 % of control; (endpoint: mean tumor weight, dose: 250.0 mg/kg/injection, schedule: Q07DX005 (ip), vehicle: saline) 84 % of control; (endpoint: mean tumor weight, dose: 250.0 mg/kg/injection, schedule: Q07DX008 (ip), vehicle: saline) 184 % of control; (endpoint: mean tumor weight, dose: 500.0 mg/kg/injection, schedule: Q07DX005 (ip), vehicle: saline) 59 % of control; (endpoint: mean tumor weight, dose: 500.0 mg/kg/injection, schedule: Q07DX008 (ip), vehicle: saline) 55 % of control; (endpoint: mean tumor weight, dose: 750.0 mg/kg/injection, schedule: Q07DX008 (ip), vehicle: saline) 68 % of control. The T/C (endpoint: median tumor weight (est.), dose: 12.5 mg/kg/injection, schedule: Q07DX005 (ip), vehicle: suspension in saline) was 28 % of control; the T/C (endpoint: median tumor weight (est.), dose: 250.0 mg/kg/injection, schedule: Q07DX005 (ip), vehicle: suspension in saline) was 100 % of control; the T/C (endpoint: median tumor weight (est.), dose: 500.0 mg/kg/injection, schedule: Q07DX005 (ip), vehicle: suspension in saline) was 26 % of control.
